# US5164314A, “Microbiologically-prepared diacetyl reductase” (priority 1988, dated 1992)
# “And” between values parts separate entries of the source, which are not always exact repeats. Equal values may be shown once. Read-outs that look alike come from different tables or passages of the source.
# Experiments:
# diacetyl reductase [1] = test: Acetoin oxidation reaction with NAD as coenzyme; type: biochemical, Lactobacillus kefir; details: pH and concentrations altered
# [2] = tested on: Lc. enzyme (diacetyl reductase); test: Effect of various metal cations and inhibitors on the diacetyl-reducing activity; type: biochemical, Lactobacillus kefir; details: for Inhibition of the enzyme (in words): 1 mM concentration
# Description: In order to determine the behavior of the diacetyl-reducing activity in the presence of metal cations and inhibitors, the appropriate substances were added in a concentration of 1 mM to the assay, and the activities were determined after an incubation time of 5 min at 20° C. The absorption characteristics of diacetyl made it necessary to determine two blanks, one measured with replacement of enzyme solution, and the other measured by replacing substrate solution by buffer.
# diacetyl reductase E1 [3] = test: Substrate spectrum and KM determination, enzyme E1; type: biochemical, Lactobacillus kefir; parameters: Rel. Vmax E1: unit not given here
# diacetyl reductase E1 [4] = test: Stereospecificity by oxidation of D(-)- and L(+)-lactic acid, enzyme E1; type: biochemical, Lactobacillus kefir; details: NAD+, potassium phosphate buffer pH 7.0
# Description: (§1) But since the enzyme can also reduce pyruvate (as shown in Table 5), this provides a method of establishing the stereospecificity on the basis of the pair of substrates (+)- and (-)-lactate. In assay mixtures with D(-)- or L(+)-lactic acid and NAD^+ in potassium phosphate buffer (pH 7.0), the two enzymes E1 and E2 were able to convert D(-)-lactic acid very well, whereas […] was converted with 5% of this activity by E1 and with 4% of this activity by E2.
# diacetyl reductase E2 [5] = test: Stereospecificity by oxidation of D(-)- and L(+)-lactic acid, enzyme E2; type: biochemical, Lactobacillus kefir; details: NAD+, potassium phosphate buffer pH 7.0
# Description: as §1
# diacetyl reductase E2 [6] = test: Substrate spectrum and KM determination, enzyme E2; type: biochemical, Lactobacillus kefir
# Description: To determine KM, the activity of both Lactobacillus enzymes was measured as a function of the substrate concentration.
# Various substrates were assayed with the most highly-purified preparations of the Lc. enzymes E1 and E2. The maximum conversion rate and KM were measured for each substrate by altering the concentration.
# diacetyl reductase [7] = tested on: diacetyl reductase
# Description: The enzyme was incubated with various concentrations of manganese chloride in an ice bath for 1 hour. The activity of each sample was then determined and, after 15 and 30 min, the activities were redetermined by renewed NADH addition.
# [8] = Conversion of diacetyl by available lactate dehydrogenase; type: biochemical
# Description: But it can be stated that, when available lactate dehydrogenase is used, diacetyl is not converted.
# [9] = 1 mM, incubation 5 min at 20° C.
# [10] = most highly-purified E1, read-out: Km E1
# [11] = most highly-purified E2, read-out: Km E2
molecule,measurement,setting,value
"CC(=O)C(C)O (single isomer, unassigned) [acetoin]",acetoin oxidation reaction (in words),diacetyl reductase [1],never possible to measure
"O[C@H](CS)[C@@H](O)CS [1,4-Dithioerythritol]",Residual activity of the Lc. enzyme,[2]; [9],72%
"c1cnc2c(c1)ccc1cccnc12 [1,10-Phenanthroline]",Inhibition of the enzyme (in words),[2],strong inhibition
same,Residual activity of the Lc. enzyme,[2]; [9],0%
"c1ccc(-c2ccccn2)nc1 [2,2'-Bipyridyl]",Residual activity of the Lc. enzyme,[2]; [9],19%
"O=C(O)c1cc(SSc2ccc([N+](=O)[O-])c(C(=O)O)c2)ccc1[N+](=O)[O-] [2,2'-Dinitro-5,5'-dithiodibenzoic acid]",Inhibition of the enzyme (in words),[2],strong inhibition
same,Residual activity of the Lc. enzyme,[2]; [9],0%
"CC(=O)CCC(C)=O [2,5-Hexanedione]",Rel. Vmax E1,diacetyl reductase E1 [3]; most highly-purified E1,7
same,Km,diacetyl reductase E1 [3]; [10],26 mM
"CC(=O)CC(C)=O [Acetylacetone, 2,4-pentanedione]",Km,"diacetyl reductase E1 [3]; enzyme not named in b63 (E1 in Table 5), read-out: Km for acetylacetone",50 mM
same,Rel. Vmax E1,diacetyl reductase E1 [3]; most highly-purified E1,8
same,Km,diacetyl reductase E1 [3]; [10],50 mM
[Ba+2].[Cl-].[Cl-] [BaCl2],Residual activity of the Lc. enzyme,[2]; [9],102%
[Ca+2].[Cl-].[Cl-] [CaCl2],Residual activity of the Lc. enzyme,[2]; [9],96%
[Cl-].[Cl-].[Co+2] [CoCl2],Residual activity of the Lc. enzyme,[2]; [9],102%
[Cl][Cu][Cl] [CuCl2],Inhibition of the enzyme (in words),[2],strong inhibition
same,Residual activity of the Lc. enzyme,[2]; [9],0%
C[C@@H](O)C(=O)O [D(-)-lactic acid],Conversion of lactic acid by E1 (in words),diacetyl reductase E1 [4],very well
same,Conversion of lactic acid by E2 (in words),diacetyl reductase E2 [5],very well
CC(=O)C(C)=O [Diacetyl],"diacetyl concentration of substrate saturation, E1",diacetyl reductase E1 [3],above 1 M
same,Rel. Vmax E1,diacetyl reductase E1 [3]; most highly-purified E1,100
same,"diacetyl concentration of substrate saturation, E2",diacetyl reductase E2 [6],above 1 M
same,Km,"diacetyl reductase E2 [6]; linear regression of Lineweaver-Burke plot, read-out: Km (E2)",67 mM
same,Rel. Vmax E2,diacetyl reductase E2 [6]; most highly-purified E2,100
same,Km,diacetyl reductase E2 [6]; [11],67 mM
same,Km,"diacetyl reductase E2 [6]; pH 4.25, read-out: KM for the reduction of diacetyl (E2)",67 mM
CCC(CC)(C(=O)O)C(=O)O [Diethylmalonic acid],Residual activity of the Lc. enzyme,[2]; [9],100%
O[C@H](CS)[C@H](O)CS [Dithiothreitol],Residual activity of the Lc. enzyme,[2]; [9],106%
O=C(O)CN(CCN(CC(=O)O)CC(=O)O)CC(=O)O [EDTA],Residual activity of the Lc. enzyme,[2],94%
CCOC(=O)C(C)=O [Ethyl pyruvate],Rel. Vmax E1,diacetyl reductase E1 [3]; most highly-purified E1,109
same,Km,diacetyl reductase E1 [3]; [10],2.4 mM
same,Rel. Vmax E2,diacetyl reductase E2 [6]; most highly-purified E2,77
same,Km,diacetyl reductase E2 [6]; [11],2.1 mM
[Cl][Fe][Cl] [FeCl2],Inhibition of the enzyme (in words),[2],strong inhibition
same,Residual activity of the Lc. enzyme,[2]; [9],0%
[Cl][Fe]([Cl])[Cl] [FeCl3],Residual activity of the Lc. enzyme,[2]; [9],82%
N[C@@H](CCC(=O)N[C@@H](CS)C(=O)NCC(=O)O)C(=O)O [Gluthathione],Residual activity of the Lc. enzyme,[2]; [9],103%
[Cl][Hg][Cl] [HgCl2],Inhibition of the enzyme (in words),[2],strong inhibition
same,Residual activity of the Lc. enzyme,[2]; [9],0%
NC(=O)CI [Iodoacetamide],Residual activity of the Lc. enzyme,[2]; [9],99%
O=C(O)CI [Iodoacetic acid],Residual activity of the Lc. enzyme,[2],102%
"C[C@H](O)C(=O)O [L(-)-lactic acid, L(+)-lactic acid]","Activity relative to that with D(-)-lactic acid, E1",diacetyl reductase E1 [4],5%
same,"Activity relative to that with D(-)-lactic acid, E2",diacetyl reductase E2 [5],4%
N[C@H]1CONC1=O [L-Cycloserine],Residual activity of the Lc. enzyme,[2]; [9],100%
[Cl-].[Cl-].[Mg+2] [MgCl2],Inhibition of the enzyme (in words),[2],strong inhibition
same,Residual activity of the Lc. enzyme,[2]; [9],0%
"[Cl][Mn][Cl] [MnCl2, manganese chloride]",Residual activity of the Lc. enzyme,[2]; [9],91%
same,rel. activity,"diacetyl reductase [7]; 1 mM manganese, 15 min",69%
same,rel. activity,"diacetyl reductase [7]; 1 mM manganese, 30 min",0.3%
same,rel. activity,"diacetyl reductase [7]; 1 mM manganese, t = 0",100%
same,rel. activity,"diacetyl reductase [7]; 2 mM manganese, 15 min",79%
same,rel. activity,"diacetyl reductase [7]; 2 mM manganese, 30 min",25%
same,rel. activity,"diacetyl reductase [7]; 2 mM manganese, t = 0",100%
same,Effect on enzyme stability (in words),diacetyl reductase [7]; 5 mM,distinctly stabilizes the enzyme
same,rel. activity,"diacetyl reductase [7]; 5 mM manganese, 15 min",88%
same,rel. activity,"diacetyl reductase [7]; 5 mM manganese, 30 min",39%
same,rel. activity,"diacetyl reductase [7]; 5 mM manganese, t = 0",100%
same,rel. activity,"diacetyl reductase [7]; 10 mM manganese, 15 min",46%
same,rel. activity,"diacetyl reductase [7]; 10 mM manganese, 30 min",19%
same,rel. activity,"diacetyl reductase [7]; 10 mM manganese, t = 0",100%
CCN1C(=O)C=CC1=O [N-Ethylmaleimide],Residual activity of the Lc. enzyme,[2]; [9],112%
"NC(=O)C1=CN([C@@H]2O[C@H](COP(=O)(O)OP(=O)(O)OC[C@H]3O[C@@H](n4cnc5c(N)ncnc54)[C@H](O)[C@@H]3O)[C@@H](O)[C@H]2O)C=CC1 [NADH, nicotinamide adenine dinucleotide, reduced]",Rel. Vmax E1,diacetyl reductase E1 [3]; most highly-purified E1,100
same,Km,diacetyl reductase E1 [3]; [10],0.03 mM
same,Rel. Vmax E2,diacetyl reductase E2 [6]; most highly-purified E2,100
same,Km,diacetyl reductase E2 [6]; [11],0.036 mM
[Cl][Ni][Cl] [NiCl2],Residual activity of the Lc. enzyme,[2]; [9],100%
O=S(=O)(F)Cc1ccccc1 [PMSF],Inhibition of the enzyme (in words),[2],less inhibition
same,Residual activity of the Lc. enzyme,[2]; [9],29% and 30%
NNc1ccccc1 [Phenylhydrazine],Inhibition of the enzyme (in words),[2],strong inhibition
same,Residual activity of the Lc. enzyme,[2]; [9],0%
[Cl-].[Cl-].[Zn+2] [ZnCl2],Residual activity of the Lc. enzyme,[2]; [9],85%
O=C(O)c1cc[c]([Hg+])cc1.[OH-] [p-Hydroxymercuribenzoate],Residual activity of the Lc. enzyme,[2]; [9],79%
Diacetylbenzene,Rel. Vmax E1,diacetyl reductase E1 [3]; most highly-purified E1,1.3
Triton X-100,Residual activity of the Lc. enzyme,[2]; [9],113%
lactate dehydrogenase,conversion of diacetyl (in words),[8],not converted
